Experimental data as given in US20100197765A1, “METHOD FOR PROMOTING THE EXPRESSION OF P53, AND P53 EXPRESSION PROMOTER FOR USE IN THE METHOD” (THE UNIVERSITY OF TOKUSHIMA, priority 2007, published 2010).

Experiments:
Format in all cases: cell-based, human
bax mRNA and noxa mRNA = experiment: bax and noxa mRNA by quantitative RT-PCR in siRNA-transfected HCT116 cells; conditions: HCT116, 5-FU 80 μmol/L, 24 hours, vs control
Procedure: Whether or not the increase in the 5-FU-induced expression of p53 mRNA caused by the knockdown of vegf IresRNA by vegf siRNA induces expression of mRNA of a bax gene or a noxa gene, which are both p53 target genes, was examined. Cells obtained by transfecting the same control siRNA vectors, vegf siRNA #1 vectors, or vegf siRNA #2 vectors as in the above into parent cells HCT116 were treated for 24 hours in the presence of 80 μmol/L of 5-FU (+) or in the absence of 5-FU (−). Thereafter, expressions of bax mRNA and noxa mRNA were analyzed by quantitative RT-PCR (means±SD, n=4).

HCT116 cells = experiment: apoptosis of siRNA-expressing HCT116 cells treated with low-concentration anticancer agents, with or without rVEGF; conditions: for enhancement of apoptosis when cells were treated with rVEGF protein: HCT116, 1 ng/ml rVEGF plus anticancer agents; for apoptosis by treatments with anticancer agents of low concentrations: HCT116, etoposide 20 μmol/L, doxorubicin 170 nmol/L, 5-FU 40 μmol/L, 60 hours, vs untreated
Procedure: The recombinant vectors that express vegf siRNA#1 and #2 and the vectors that express control siRNA were transfected into HCT116 cells (parent cells, wild-type p53). As a control cell, an HCT116 cell not transfected with a recombinant vector that expresses siRNA was used. These four types of cells were treated in the presence or absence of various anticancer agents having the final concentrations as described below for 60 hours. As the anticancer agent, etoposide (20 μmol/L), doxorubicin (170 nmol/L), and 5-FU (40 μmol/L) were used. With respect to the treated cells, apoptosis (%) was quantified in the same manner as in Example A1.
UTR RNA and function of VEGF protein. With the aim of clarifying an effect of blocking the function of vegf 5′ UTR RNA, recombinant VEGF protein (R&D systems, hereinafter referred to as “rVEGF”) was added to a culture supernatant of cells transfected with vegf siRNA in order to add VEGF protein that is decreased due to siRNA. […] Therefore, in Example A9, 1 ng/ml of rVEGF protein was added to the four types of cells. […] Then, these transfection cells were treated with anticancer agents in the same manner as described above.

HepG2 cells = experiment: apoptosis (Apoptotic evaluation 1) of siRNA-expressing HepG2 cells treated with 5-FU; conditions: for basal apoptosis: HepG2, 0 μmol/L 5-FU; for proportion of apoptosis in response to 5-FU: HepG2, 5-FU 10, 30 μmol/L, 60 hours, concentration-dependent
Procedure: Objective cells were treated with various anticancer agents, and then incubated with trypsin/EDTA to prepare cell suspensions. The cell suspensions were centrifuged and supernatants thereof were removed. Thereafter, the cell suspensions each were immobilized and stained with a solution of formaldehyde of 3.7%, Nonidet P40 of 0.5%, and 10 μg/mL of Hoechst33258 (Invitrogen) in PBS. […] The counting was performed with respect to at least 300 cells in one measurement.
Each type of the recombinant vectors was transfected into HepG2 cells for 18 hours in the same manner as in the above-described item (1). Each type of the transfection cells was treated with an anticancer agent “5-FU” having a predetermined concentration (0, 10, 30 μmol/L) for 60 hours. Then, the apoptosis (%) of the treated cells was examined according to “Apoptosis evaluation 1”. FIG. 1B is a graph showing apoptosis (%) in each type of the cells treated with 5-FU having a predetermined concentration (means±SD, n=3).

vegf mRNA [1] = experiment: vegf mRNA expression by Northern blotting in HepG2 cells expressing vegf siRNA; conditions: HepG2, 18 hours after vector transfection, vs untransfected and control siRNA cells
Procedure: Total RNAs were extracted according to a guanidine thiocyanate method. Labeled cDNAs were produced using the following antisense primers, a klenow fragment (New England BioLabs, Inc., Inc.), and [α^−32P]dCTP, with the following cDNAs being templates. Thus obtained labeled cDNAs were used as probes for the Northern blotting.
The vegf siRNA #1 vectors, the vegf siRNA #2 vectors, and the control siRNA vectors were transfected into HepG2 cells (wild-type p53). These cells were cultured for 18 hours, and the expression level of vegf mRNA was analyzed by the Northern blotting. Also, with respect to the HepG2 cells not transfected with the vectors, the analysis was performed in the same manner. At the time of analysis, gapdh mRNA in each type of the cells was monitored as a loading control (hereinafter, the same applies). The cells were cultured using DMEM medium containing 10% fetal bovine serum and 100 μg/ml (100 units/ml) of streptomycin under the condition of 37° C. and 5% CO2 (hereinafter, the same applies).

parent cells HCT116 = experiment: apoptosis (TUNEL) in parental HCT116 cells with vegf siRNA and 5-FU; conditions: parent cells HCT116, siRNA expressed and 80 mmol/L of 5-FU, 60 hours
Procedure: Apoptotic cells were evaluated by a TUNEL staining method using in situ Cell Death Detection kit (Roche Diagnostic). […] The counting was performed with respect to at least 300 cells in one measurement.
Various types of cells were treated with 5-FU, which is an anticancer agent inducing apoptosis in a p53-dependent manner, and the sensitivity to apoptosis was analyzed. The vegf siRNA#1 vectors expressing siRNA#1, the vegf siRNA #2 vectors expressing siRNA #2, and the control siRNA vectors described above respectively were transfected into HCT 116 (parent cells) and p53-deleted cells HCT116. Then, the cells after 18 hours from the transfection was treated for 60 hours in the presence of […] of 5-FU (+) or in the absence of 5-FU (−). The proportion (%) of apoptosis positive cells in the thus-treated cells was calculated based on “Apoptotic evaluation 2” above (means±SD, n=4).

vegf mRNA [2] = experiment: vegf mRNA by quantitative RT-PCR in siRNA-transfected HCT116 cells; conditions: HCT116, 18 hours after transfection, ratio to gapdh mRNA
Procedure: From 1 μg of total RNA, cDNA was synthesized using SuperScriptII RNaseH(−) reverse transcriptase (Invitrogen), and PCR was performed using primers for amplification-purpose nucleic sequences with the cDNA being a template. The amplification and the quantitative analysis of PCR products were performed using Applied Biosystems 7500 (Applied Biosystems) by the method recommended by the manufacturer.
Whether or not vegf siRNA promotes the apoptosis sensitivity of cells was examined. In the same manner as in Example A1 except that HCT116 cells (parent cells, wild-type p53) were used instead of the HepG2 cells (wild-type p53), the vegf siRNA #1 vectors expressing siRNA #1, the vegf siRNA #2 vectors expressing siRNA #2, and the control siRNA vectors described above were respectively transfected into the HCT116 cells (parent cells, wild-type p53). Then, with regard to the cells after 18 hours from the transfection, the expression levels of vegf mRNA and gapdh mRNA were analyzed by quantitative RT-PCR (means±SD, n=4) and the expression levels of vegf IresRNA and gapdh mRNA were analyzed by Northern blotting. Also, with regard to HCT116 cells not transfected with the above-described recombinant vectors, the analyses were conducted in the same manner. The quantitative RT-PCR was conducted in the same manner as in Example B1, except that a primer set for vegf mRNA was used.

siRNA #1: siRNA against vegf mRNA, SEQ ID NO 3/4, antisense complementary to bases 1062-1082 in SEQ ID NO. 1; expressed from pcDNA6.2-GW/EmGFP-miR vector (sense GCAUUGGACUUGCCUUGCUNN; antisense AGCAAGGCAAGGCUCCAAUGCNN)
induction of the expressions of bax mRNA and noxa mRNA by 5-FU (bax mRNA and noxa mRNA): promoted markedly
enhancement of apoptosis when cells were treated with rVEGF protein (HCT116 cells): affected very little
apoptosis by treatments with anticancer agents of low concentrations (HCT116 cells): enhanced markedly
basal apoptosis (HepG2 cells): not affected
proportion of apoptosis in response to 5-FU (HepG2 cells): increased markedly
expression amount of vegf mRNA (vegf mRNA [1]): decreased markedly
proportion of apoptosis (parent cells HCT116): increased markedly
amount of the vegf mRNA expressed (vegf mRNA [2]): decreased markedly

siRNA #2: siRNA against vegf mRNA, SEQ ID NO 5/6, antisense complementary to bases 1067-1087 in SEQ ID NO. 1; vector-expressed (sense GGAGCCUUGUUGCUGCUCUNN; antisense AGAGCAGCAAGGCAAGGCUCCNN)
induction of the expressions of bax mRNA and noxa mRNA by 5-FU (bax mRNA and noxa mRNA): promoted markedly
enhancement of apoptosis when cells were treated with rVEGF protein (HCT116 cells): affected very little
apoptosis by treatments with anticancer agents of low concentrations (HCT116 cells): enhanced markedly
basal apoptosis (HepG2 cells): not affected
proportion of apoptosis in response to 5-FU (HepG2 cells): increased markedly
expression amount of vegf mRNA (vegf mRNA [1]): decreased markedly
proportion of apoptosis (parent cells HCT116): increased markedly
amount of the vegf mRNA expressed (vegf mRNA [2]): decreased markedly
